Converted amounts (≈) assume the structure as drawn. “And” between values parts separate entries of the source, which are not always exact repeats. Equal values may be shown once. Read-outs that look alike come from different tables or passages of the source.
Tests used:
[1] = ref data on file, cited from earlier work
[2] = weak-base compound; ref data on file; cited from earlier work
[3] = type: in vivo, human
[4] = final population PK model, healthy subjects

For `N#Cc1ccc(N2CCN(Cc3ccc(COc4cccc5c4CN([C@H]4CCC(=O)NC4=O)C5=O)cc3)CC2)c(F)c1` [mezigdomide], the Solubility ([1]; pH 1) is listed as 133 µg/mL (≈ 234 µM), the Solubility ([1]; pH 5) is listed as 1 µg/mL (≈ 1.76 µM) and the “decrease of solubility from pH 1 to pH 5” value [1] is listed as ~ 100 fold. For the same compound, the dissociation constant [2] was 6, the “decrease in ka with high-fat meal” value ([3]; fed vs fasted, model-estimated) was ~ 30% and the “increase in Tlag with high-fat meal” value ([3]; fed vs fasted, model-estimated) was ~ 0.85 h. The “increase of relative oral bioavailability F with high-fat meal” value ([3]; fed vs fasted, model-estimated) was ~ 30%, the “interindividual variability (IIV) of central volume of distribution V1” value ([3]; final population PK model) was 63% and 63.4% and the “interindividual variability (IIV) of clearance” value ([3]; final population PK model) was 40% and 39.9% and ~ 40%. For the same compound, the “interindividual variability (IIV) of intercompartmental clearance” value ([3]; final population PK model) was 26%, the “interindividual variability (IIV) of peripheral volume of distribution” value ([3]; final population PK model) was 26% and the “interoccasion variability (IOV) of absorption rate constant ka” value ([3]; final population PK model) was 65%. For the same compound, the “V1pop, distribution volume of the central compartment” value [3, 4] was 440 L, the “V2pop, distribution volume of the peripheral compartment” value [3, 4] was 243 L and the dose-exposure relationship ([3]; healthy subjects, 0.4–3.2 mg) was “linear”. The absorption rate constant ([3]; population PK parameter, healthy subjects (abstract)) was 1.18 h⁻¹ and the “decrease in relative oral bioavailability F with PPI co-administration” value ([3]; rabeprazole vs no PPI, model-estimated) was ~ 64%.
